Results taken from patent US20070248672A1, “Indole and Azaindole Derivatives with Antitumor Action” (priority 2004, published 2007).
Counter-ions that a name gives are not always drawn. Like-named read-outs stand apart in the source and are kept apart here.

Legend:
[1] = system: HepG2 cells; assay: Antiproliferative activity, 48 h treatment, ATPlite luminescence assay, HepG2; assay type: cell-based, human; conditions: HepG2, 48 h treatment, read-out: Antiproliferative activity (IC50 ± S.D.) HepG2 48 h treatment
Experimental: HepG2: maintained in EMEM medium+10% FCS.
2.3 Scheme of the Antiproliferative Activity Experiment (Treatment Time: 48 Hours)
The cells (concentration: 30,000 cells/ml) are seeded in 90 μl of the respective culture media in 96-well plates. 24 hours after seeding, an aliquot (10 μl) of the drug at the various concentrations is added (for each concentration there are 3 replicates). After 48 hours of treatment the antiproliferative effect is evaluated with a luminescence assay (Perkin Elmer Life Sciences ATPlite):
50 μl of a lysis solution are added to each well followed by an equal volume of a solution containing luciferase and D-luciferin. The ATP present in all the metabolically active cells brings about the transformation reaction of D-luciferin, catalysed by luciferase, to produce a luminescent signal as described in the following scheme: ATP+D-luciferin+O2→Oxyluciferin+AMP+PP1+CO2+Light
The luminescence produced (expressed in counts per second, CPS) is measured by means of a microplate scintillation analyzer (Perkin Elmer Life Sciences Top Count).
Percentage inhibition of luminescence in the treated cells compared to the control is calculated; concentration-response curves are then analysed using Grafit v.5.0.

[2] = system: HT29/Mit cells; assay: Antiproliferative activity, 72 h treatment, SRB assay, HT29/Mit resistant line; assay type: cell-based, human; conditions: Homo sapiens
Experimental: (§1) HT29 and HT29/Mit (line obtained by prolonged exposure to mitoxantrone, and characterised by overexpression of BCRP, which confers cross resistance to topotecan, irinotecan and to its metabolite SN38): maintained in McCoy 5A medium+10% FCS.
(§2) 2.2 Scheme of the Antiproliferative Activity Experiment (Treatment Time: 72 Hours)
(§3) The cells (HT29 and HT29/Mit: 40,000 cells/ml, LoVo, LoVo/Dx and HCT116: 50,000 cells/ml) are seeded in 100 μl of the respective culture media in 96-well plates. 24 hours after seeding, an aliquot (10 μl) of drug at the various concentrations is added. In the samples in which the effect of the combination of two compounds is to be tested the inhibitor is added immediately before the cytotoxic. For each dose or combination of doses/drugs the effect of the treatment is determined in 4-8 replicates.
(§4) After 72 hours of treatment the antiproliferative effect is evaluated using the sulforhodamine B (SRB) assay: the cells are fixed by adding 25 μl of 50% TCA to each well and left for 1 hour at 4° C. After washing them with water and allowing them to dry, 100 μl of 0.4% SRB in 1% acetic acid are added and left for 30 minutes at room temperature. After 4 washes in 1% acetic acid, they are left to dry then the dye fixed by the proteins is dissolved under basic conditions with 100 μl 10 mM cold Tris and the solution is read using a spectrophotometer at 550 nm.
(§5) Percentage cell growth is calculated as the optical density of treated samples compared to the optical density of controls (untreated cells).

[3] = system: HT29 cells; assay: Antiproliferative activity, 72 h treatment, SRB assay, HT29; assay type: cell-based, human
Experimental: as §1, §2, §3, §4, §5

[4] = target: Vacuolar ATPase in bovine chromaffin cells membranes (BCG) (Bos taurus, UniProt P23956+Q29466); assay: Vacuolar ATPase inhibition in bovine chromaffin cells membranes (BCG); assay type: biochemical; conditions: read-out: ATPase activity (IC50) BCG; bovine chromaffin cell membranes
Vacuolar ATPase in bovine chromaffin cells membranes (BCG), sequence (P23956 whole entry, looked up): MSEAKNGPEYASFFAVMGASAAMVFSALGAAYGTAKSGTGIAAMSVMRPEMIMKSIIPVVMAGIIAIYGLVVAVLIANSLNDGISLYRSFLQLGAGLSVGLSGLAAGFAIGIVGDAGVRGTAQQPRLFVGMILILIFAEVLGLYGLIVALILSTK
Vacuolar ATPase in bovine chromaffin cells membranes (BCG), sequence (Q29466 whole entry, looked up): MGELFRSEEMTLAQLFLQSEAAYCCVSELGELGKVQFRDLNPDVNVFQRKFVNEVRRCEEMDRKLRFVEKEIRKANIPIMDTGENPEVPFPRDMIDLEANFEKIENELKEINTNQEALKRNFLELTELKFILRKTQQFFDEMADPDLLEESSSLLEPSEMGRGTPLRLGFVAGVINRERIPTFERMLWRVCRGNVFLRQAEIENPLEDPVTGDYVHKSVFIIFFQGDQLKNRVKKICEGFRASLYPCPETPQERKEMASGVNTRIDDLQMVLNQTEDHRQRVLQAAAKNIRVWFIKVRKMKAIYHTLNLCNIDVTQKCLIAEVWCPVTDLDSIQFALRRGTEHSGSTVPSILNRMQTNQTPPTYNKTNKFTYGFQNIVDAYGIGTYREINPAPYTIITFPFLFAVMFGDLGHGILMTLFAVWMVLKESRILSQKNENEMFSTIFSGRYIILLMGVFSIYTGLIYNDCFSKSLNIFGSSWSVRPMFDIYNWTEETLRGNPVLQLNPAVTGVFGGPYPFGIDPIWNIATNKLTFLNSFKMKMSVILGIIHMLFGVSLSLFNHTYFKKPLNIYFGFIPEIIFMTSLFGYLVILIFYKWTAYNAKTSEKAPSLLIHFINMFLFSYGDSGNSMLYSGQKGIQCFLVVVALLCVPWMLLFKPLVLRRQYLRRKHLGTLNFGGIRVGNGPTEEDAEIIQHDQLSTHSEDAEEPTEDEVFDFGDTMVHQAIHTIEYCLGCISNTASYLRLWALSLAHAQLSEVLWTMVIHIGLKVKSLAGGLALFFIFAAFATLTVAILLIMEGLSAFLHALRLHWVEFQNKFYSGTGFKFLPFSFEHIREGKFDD
Experimental: Inhibition of bafilomycin sensitive ATPase activity is assayed by measuring the release of inorganic phosphate during 30 minutes of incubation, at 37° C., of the human osteoclastoma microsomal fraction in 96-well plates. The reaction medium contains 1 mM ATP, 10 mM Hepes-Tris buffer pH 8, 50 mM KCl, 5 μM valinomycin, 5 μM nigericin, 1 mM CDTA-Tris, 100 μM ammonium molybdate, 0.2 M sucrose and the microsomal fraction (20 μg protein/ml). The reaction is initiated by adding MgSO4 and terminated, after 30 minutes, by adding 4 volumes of the reagent malachite green, prepared according to Chan K., Anal. Biochem. 157, 375-380, 1986.
1.2 Determination of Vacuolar ATpase Inhibition in the Bovine Chromaffin Cells Membranes (BCG)
About 20 adrenal glands (Cidon S., J. Biol. Chem. 258, 2892-2898, 1983) are removed from healthy bovines; the medulla is quickly separated from the cortex, which is discarded. The medulla is homogenised at 4° C. with a suitable medium at pH 7.5, then filtered. The remaining solid material is further homogenised, filtered and recombined with the preceding filtrate, resuspended and centrifuged at 1000 g for 15 minutes; the supernatant obtained is centrifuged at 10000 g for 20 minutes. The resultant pellet is resuspended and stratified through a sucrose gradient formed of a lower part of 15 ml 1.5 M sucrose and an upper part of 10 ml 1.2 M sucrose. After overnight centrifugation at 4° C. with a SW28 rotor at 20000 rpm, the chromaffiln cells sediment into a pellet. This latter is resuspended, centrifuged at 3000 g for 10 minutes, and the supernatant obtained is centrifuged at 200000 g for 60 minutes. The pellet is then resuspended in 4 ml of a suitable medium containing 0.2 μg/ml pepstatin A and 0.4 μg/ml leupeptin and stored under liquid nitrogen.
The method for ATPase inhibition assay is the same as that followed for the osteoclastoma.

[5] = system: HT29 cells; assay: Co-treatment with topotecan, HT29 cells (Combination Index according to Kern); assay type: cell-based, human; conditions: HT29 cells
Experimental: as §3, §4, §5
(§6) The Combination Index (C.I.) was determined according to Kern's method, 1988 (who continued from Drewinko B, 1976) (Kem D. H., Cancer Res. 48, 117-121, 1988; Drewinko B., Cancer Biochem. Biophys. 1, 187-195, 1976) by means of the following formula: […], where SFa and SFb are the fractions of cells surviving to treatment with compound a and b, respectively; SFab is the fraction surviving to the combination of compounds a and b. If the result is =1, the interaction between the two compounds is additive; if it is >1, the interaction between the two compounds is synergistic; if it is <1, the interaction between the two compounds is antagonistic.

[6] = system: HT29/Mit cells; assay: Co-treatment with topotecan, HT29/Mit resistant cells (Combination Index according to Kern); assay type: cell-based, human; conditions: HT29/Mit cells
Experimental: as §3, §4, §5, §6

[7] = system: HT29/Mit human colon carcinoma xenografts; assay: HT29/Mit human colon carcinoma xenograft, antitumor activity; assay type: in vivo, athymic Swiss nude mice
Excerpt: 1.1 Model of HT29/Mit human colon carcinoma xenografts-Antitumor activity Female athymic Swiss nude mice (8-10 weeks old) (Charles River, Calco, Italy) were used for the experiments. The animals were maintained at constant temperature and humidity, and were allowed to eat and drink freely. The experimental protocol was approved by the Ethics Committee for Animal Experimentation of the Istituto Nazionale Tumori of Milan. The antitumour effectiveness of the compounds of the invention under discussion was tested on athymic mouse models implanted with HT29 and/or HT29/Mit tumour cells: this latter variety is highly resistant to topotecan treatment. The tumour cells were implanted in vivo via subcutaneous injection of 10^7 cells taken from in vitro cultures. Randomized groups of five mice with bilateral subcutaneous tumours were used for the experiment. Topotecan or other known antitumour agents (dissolved in distilled water or an appropriate solvent) and the compounds of the invention (dissolved in Cremophor EL: ethanol: saline solution in the proportions 5:5:90, or in an appropriate solvent) were administered orally from the third day, alone or in combination, in agreement with a treatment scheme selected in an appropriate manner depending on the type of compound to be studied. The weight (or volume) of the tumour in treated mice compared to controls is represented graphically on the y-axis against time (x-axis).

[8] = HT-29/Mit resistant line, 72 h treatment, read-out: Antiproliferative activity (IC50 ± S.D.) HT-29/Mit
[9] = Homo sapiens, HT-29, 72 h treatment, read-out: Antiproliferative activity (IC50 ± S.D.) HT-29 72 h treatment
[10] = HT-29, HT29/Mit, after 72 hours of treatment, range stated for the group, read-out: IC50 values in the resistant line
[11] = Homo sapiens, HT-29, HT29, after 72 hours of treatment, range stated for the group, read-out: IC50 values in the sensitive line

Compound | IC50 ([1]; Homo sapiens) | IC50 [2, 8] | IC50 [3, 9] | IC50 [4] | IC50 [1] | IC50 ([3]; HT-29, 72 h treatment, read-out: Antiproliferative activity (IC50 ± S.D.) HT-29 72 h treatment) | effect in combination with topotecan [5] | IC50 [2, 10] | IC50 [3, 11] | effect in combination with topotecan [6] | tumor growth inhibition ([7]; 1 mg/kg p.o.) | tumor growth inhibition ([7]; 2 mg/kg p.o.)
COC(=O)c1[nH]c2cc(OC)c(OC)cc2c1-c1ccc(OC)c(OC)c1 [Example 2, -3-(3,4-Dimethoxyphenyl)-5,6-dimethoxy-1H-indole-2-carboxylic acid methyl ester] | 25500 ± 4500 nM | 15200 ± 300 nM | 35200 ± 5200 nM | – | – | – | – | – | – | – | – | –
COc1ccc(-c2c(C#N)[nH]c3cc(OC)c(OC)cc23)cc1 [Example 17, 5,6-dimethoxy-3-(4-methoxyphenyl)-1H-indole-2-carbonitrile] | – | 2500 nM | 4900 ± 500 nM | 273 nM | – | – | – | – | – | – | – | –
N.N.[Cl][Pt][Cl] [Cisplatin, reference compound] | – | – | – | – | > 25000 nM | 6800 nM | – | – | – | – | – | –
COC(=O)c1c(-c2ccc(OC)cc2)c2cc(OC)c(OC)cc2n1CCO [Example 12, 1-(2-Hydroxyethyl)-5,6-dimethoxy-3-(4-methoxyphenyl)-1H-indole-2-carboxylic acid methyl ester] | – | 660 ± 300 nM | 4600 nM | 247 nM | – | – | synergistic effects | 100 to 3000 nM | 5000 to 42000 nM | synergistic effects | – | –
COc1ccc(-c2c3n(c4cc(OC)c(OC)cc24)CCNC3)cc1 [Example 28, 7,8-Dimethoxy-10-(4-methoxyphenyl)-1,2,3,4-tetrahydro-pyrazino[1,2-a]indole hydrochloride] | – | 530 nM | 37300 nM | 1270 nM | – | – | – | 100 to 3000 nM | 5000 to 42000 nM | – | – | –
CC[C@@]1(O)C(=O)OCc2c1cc1n(c2=O)Cc2cc3c(CN(C)C)c(O)ccc3nc2-1 [Topotecan, reference compound] | – | 50600 nM | 70 ± 10 nM | – | – | – | – | – | – | – | 62% | 80%
COc1ccc(-c2c(C#N)n(CCN(C)C)c3cc(OC)c(OC)cc23)cc1 [Example 18, 1-(2-Dimethylaminoethyl)-5,6-dimethoxy-3-(4-methoxyphenyl)-1H-indole-2-carbonitrile hydrochloride] | – | 150 nM | 16700 nM | 567 nM | – | – | – | 100 to 3000 nM | 5000 to 42000 nM | – | – | –
COc1ccc(-c2c(-c3ncn[nH]3)[nH]c3cc(OC)c(OC)cc23)cc1 [Example 23, 5,6-Dimethoxy-3-(4-methoxyphenyl)-2-(2H-[1,2,4]triazol-3-yl)-1H-indole] | – | 2300 nM | 41900 nM | 470 nM | – | – | synergistic effects | 100 to 3000 nM | 5000 to 42000 nM | synergistic effects | – | –
COc1ccc(-c2c3n(c4cc(OC)c(OC)cc24)CCNC3=O)cc1 [Example 27, 7,8-Dimethoxy-10-(4-methoxyphenyl)-3,4-dihydro-2H-pyrazino[1,2-a]indol-1-one] | – | 2900 nM | 5200 nM | 248 nM | – | – | – | – | – | – | – | –
CCOC(=O)c1[nH]c2cc(OC)c(OC)cc2c1-c1ccccc1 [Example 4, 5,6-Dimethoxy-3-phenyl-1H-indole-2-carboxylic acid ethyl ester] | – | < 100 nM | 37300 nM | 350 nM | – | – | – | 100 to 3000 nM | 5000 to 42000 nM | – | – | –
COC(=O)c1[nH]c2cc(OC)c(OC)cc2c1-c1ccccc1 [Example 3, 5,6-Dimethoxy-3-phenyl-1H-indole-2-carboxylic acid methyl ester] | – | 150 nM | 37300 nM | 628 nM | – | – | – | 100 to 3000 nM | 5000 to 42000 nM | – | – | –
COc1ccc(-c2c(-c3nnco3)[nH]c3cc(OC)c(OC)cc23)cc1 [Example 26, 5,6-Dimethoxy-3-(4-methoxyphenyl)-2-[1,3,4]oxadiazol-2-yl-1H-indole] | – | 2700 nM | 40300 nM | 710 nM | – | – | synergistic effects | 100 to 3000 nM | 5000 to 42000 nM | synergistic effects | – | –
